What was measured:
[1] = test system: human colon cancer cells (HT-29); assay: MTT cytotoxicity assay, HT-29; type: cell-based; settings: Homo sapiens; HT-29, MTT, 48 h
Source text: (§1) In the study, five cancer cell lines (human colon cancer cells (HT-29), gastric cancer cells (BGC-823), cervical cancer cells (Hela), human breast cancer cells (MCF-7), and human lung cancer cells A549)), and two normal cell lines (human gastric epithelial cells (GES-1) and human ovarian epithelial cells (IOSE144)) were used for the evaluation of biological activity. IOSE144 cells were donated by Professor Piao Huri of Yanbian University, all other cells were purchased from the American Type Culture Collection (ATCC, Manassas, VA, USA). Cells were cultured in Dulbecco’s Modified Eagle’s Medium (DMEM), supplemented with 10% heat-inactivated fetal bovine serum (FBS), 1% 100 μg/mL penicillin and 100 μg/mL streptomycin in a humidified atmosphere containing 5% CO2 at 37 °C. Cell viability was measured using the MTT assay. Cells were seeded in 96 well microtiter plates in a volume of 100 μL medium. All compounds tested were dissolved and further diluted in DMSO. After overnight incubation, cells were treated with different test concentrations or carrier solvents alone in a final volume of 100 μL with five replicates each. […] Cells were treated with compound (80, 40, 20, 10, 5 μM) for 48 h. Then, 10 μL of MTT (5 mg/mL) was added to each well and the cells were incubated at 37 °C in the dark for 4 h. Supernatants were removed and formazan crystals were dissolved in DMSO (100 μL/well). The solution was agitated for 10 min, and the absorbance was measured at 490 nm using microplate reader (imark, BIO-RAD, Hercules, CA, USA) to calculate the 50% inhibitory concentration (IC50). Ginsenoside-Rg3, panaxadiol sapogenin (PD), AD-2 (25-OH-PPD) and AD-1 (25-OCH3-PPD) were used as standard reference compounds.

[2] = test system: gastric cancer cells (BGC-823); assay: MTT cytotoxicity assay, BGC-823; type: cell-based, human; settings: Homo sapiens; BGC-823, MTT, 48 h
Source text: as §1

[3] = test system: cervical cancer cells (Hela); assay: MTT cytotoxicity assay, Hela; type: cell-based, human; settings: Homo sapiens, 48 h
Source text: as §1

[4] = test system: human breast cancer cells (MCF-7); assay: MTT cytotoxicity assay, MCF-7; type: cell-based; settings: Homo sapiens, MCF7; MCF-7, MTT, 48 h
Source text: as §1

[5] = test system: human lung cancer cells A549; assay: MTT cytotoxicity assay, A549; type: cell-based; settings: Homo sapiens, 48 h
Source text: as §1

[6] = MTT cytotoxicity assay, GES-1 normal cells; type: cell-based, human; settings: human
Source text: as §1

[7] = MTT cytotoxicity assay, IOSE144 normal cells; type: cell-based, human; settings: human
Source text: as §1

[8] = GES-1 gastric epithelial cells (normal cell line), GES-1 normal cells, MTT, 48 h, read-out: IC50
[9] = IOSE144 ovarian epithelial cells (normal cell line), IOSE144 normal cells, MTT, 48 h, read-out: IC50

SMILES: CC1(C)CCC[C@](C)(C2CC[C@]3(C)C2[C@H](O)CC2[C@@]4(C)CC[C@H](OC(=O)c5ccccc5O)C(C)(C)C4CC[C@]23C)O1 (stereo partly drawn) [Compound 11a, 20(R)-Pananxadiol-12β-hydroxy-3β-yl-2′-hydroxybenzoate]
- IC50 [1]: 26.5 ± 0.56 µM
- IC50 [2]: 41.9 ± 0.43 µM
- IC50 [3]: > 100 µM
- IC50 [4]: 11.5 ± 1.47 µM
- IC50 [5]: 23.8 ± 1.36 µM
- IC50 at 48 h [6]: > 100 µM
- IC50 at 48 h [7]: > 100 µM
- melting point: 222 to 224 °C

SMILES: CC(=O)OC1CC2C3(C)CCC(OC(=O)c4ccccc4O)C(C)(C)C3CCC2(C)C2(C)CCC(C(C)(O)CCCC(C)(C)O)C12 [Compound 6b, 20(R)-Dammarane-20,25-diol-12β-o-acetyl-3β-yl-2′-hydroxybenzoate]
- IC50 [1]: 15.2 ± 0.41 µM
- IC50 [2]: 40.6 ± 1.05 µM
- IC50 [3]: 48.3 ± 2.16 µM
- IC50 [4]: > 100 µM
- IC50 [5]: > 100 µM
- IC50 at 48 h [6]: > 100 µM
- IC50 at 48 h [7]: > 100 µM
- melting point: 278 to 280 °C

SMILES: CC1(C)CCC[C@](C)(C2CC[C@]3(C)C2[C@H](OC(=O)c2ccccc2O)CC2[C@@]4(C)CC[C@H](OC(=O)c5ccccc5O)C(C)(C)C4CC[C@]23C)O1 (stereo partly drawn) [Compound 10a, 20(R)-Pananxadiol-3β,12β-di-yl-2′-hydroxybenzoate]
- IC50 [1]: 30.25 ± 0.02 µM
- IC50 [2]: > 100 µM
- IC50 [3]: > 100 µM
- IC50 [4]: 41.4 ± 0.48 µM
- IC50 [5]: 29.5 ± 0.61 µM
- IC50 at 48 h [6]: > 100 µM
- IC50 at 48 h [7]: > 100 µM
- melting point: 232 to 234 °C

SMILES: CC(=O)Oc1ccccc1C(=O)OC1CC2C3(C)CCC(O)C(C)(C)C3CCC2(C)C2(C)CCC(C3(C)CCCC(C)(C)O3)C12 [Compound 5b, 20(R)-Pananxadiol-3β-hydroxy-12β-yl-2′-acetylbenzoate]
- IC50 [1]: 20.1 ± 0.74 µM
- IC50 [2]: 26.24 ± 0.02 µM
- IC50 [3]: 18.65 ± 0.13 µM
- IC50 [4]: 24.36 ± 0.15 µM
- IC50 [5]: 14.1 ± 0.52 µM
- IC50 at 48 h [6]: > 100 µM
- IC50 at 48 h [7]: > 100 µM
- melting point: 226 to 228 °C

SMILES: CC(C)(CCCC(C)(O)C1CCC2(C)C1C(O)CC1C3(C)CCC(OC(=O)c4ccccc4O)C(C)(C)C3CCC12C)OC(=O)c1ccccc1O [Compound 6a, 20(R)-Dammarane-12β, 20-diol-3β, 25-di-yl-2′-hydroxybenzoate]
- IC50 [1]: > 100 µM
- IC50 [2]: > 100 µM
- IC50 [3]: 20.4 ± 0.36 µM
- IC50 [4]: > 100 µM
- IC50 [5]: 19.4 ± 0.59 µM
- IC50 at 48 h [6]: > 100 µM
- IC50 at 48 h [7]: > 100 µM
- melting point: 219 to 221 °C

SMILES: CC(C)(CCCC(C)(O)C1CCC2(C)C1C(O)CC1C3(C)CCC(O)C(C)(C)C3CCC12C)OC(=O)c1ccccc1O [Compound 8a, 20(R)-Dammarane-3β,12β,20-triol-25-yl-2′-hydroxybenzoate]
- IC50 [1]: > 100 µM
- IC50 [2]: > 100 µM
- IC50 [3]: > 100 µM
- IC50 [4]: 50.7 ± 1.34 µM
- IC50 [5]: 47.1 ± 0.59 µM
- IC50 at 48 h [6]: > 100 µM
- IC50 at 48 h [7]: > 100 µM
- melting point: 223 to 225 °C

SMILES: COC(C)(C)CCCC(C)(O)C1CCC2(C)C1C(OC(=O)c1ccccc1O)CC1C3(C)CCC(OC(=O)c4ccccc4O)C(C)(C)C3CCC12C [Compound 2a, 20(R)-25-Methoxydammarane-20-hydroxy-3β,12β-di-yl-2′-hydroxybenzoate]
- IC50 [1]: 32.58 ± 0.23 µM
- IC50 [2]: 40.9 ± 0.45 µM
- IC50 [3]: 16.5 ± 0.23 µM
- IC50 [4]: 25.7 ± 0.43 µM
- IC50 [5]: 26.45 ± 0.14 µM
- IC50 at 48 h [6]: > 100 µM
- IC50 at 48 h [7]: > 100 µM
- melting point: 200 to 202 °C

SMILES: CC(=O)Oc1ccccc1C(=O)OC1CCC2(C)C(CCC3(C)C2CC(OC(C)=O)C2C(C(C)(O)CCCC(C)(C)O)CCC23C)C1(C)C [Compound 7b, 20(R)-Dammarane-20,25-diol-12β-o-acetyl-3β-yl-2′-acetylbenzoate]
- IC50 [1]: 28.6 ± 0.65 µM
- IC50 [2]: 18.4 ± 0.35 µM
- IC50 [3]: 19.53 ± 0.19 µM
- IC50 [4]: 22.6 ± 1.02 µM
- IC50 [5]: 28.4 ± 0.95 µM
- IC50 at 48 h [6]: > 100 µM
- IC50 at 48 h [7]: > 100 µM
- melting point: 268 to 270 °C

SMILES: CC(=O)Oc1ccccc1C(=O)O [Acetyl-salicylic acid, reference compound]
- IC50 [1]: 70.26 ± 0.38 µM
- IC50 [2]: 87.67 ± 0.78 µM
- IC50 [3]: > 100 µM
- IC50 [4]: 57.1 ± 1.7 µM
- IC50 [5]: 90.5 ± 2.13 µM
- IC50 at 48 h [6, 8]: > 100 µM
- IC50 at 48 h [7, 9]: > 100 µM

SMILES: CC(=O)OC1CCC2(C)C(CCC3(C)C2CC(OC(=O)c2ccccc2O)C2C(C4(C)CCCC(C)(C)O4)CCC23C)C1(C)C [Compound 4b, 20(R)-Pananxadiol-3β-o-acetyl-12β-yl-2′-hydroxybenzoate]
- IC50 [1]: 36.12 ± 0.28 µM
- IC50 [2]: 50.26 ± 0.39 µM
- IC50 [3]: 48.75 ± 0.37 µM
- IC50 [4]: 39.4 ± 0.68 µM
- IC50 [5]: 25.4 ± 0.77 µM
- IC50 at 48 h [6]: > 100 µM
- IC50 at 48 h [7]: > 100 µM
- melting point: 238 to 240 °C

SMILES: CC(C)(O)CCCC(C)(O)C1CCC2(C)C1C(OC(=O)c1ccccc1O)CC1C3(C)CCC(O)C(C)(C)C3CCC12C [Compound 5a, 20(R)-Dammarane-3β,20,25-triol-12β-yl-2′-hydroxybenzoate]
- IC50 [1]: 18.4 ± 0.47 µM
- IC50 [2]: 60.5 ± 1.11 µM
- IC50 [3]: 21.6 ± 1.08 µM
- IC50 [4]: 18.5 ± 0.23 µM
- IC50 [5]: 22.5 ± 0.46 µM
- IC50 at 48 h [6]: > 100 µM
- IC50 at 48 h [7]: > 100 µM
- melting point: 258 to 260 °C

SMILES: O=C(O)c1ccccc1O [Salicylic acid, reference compound]
- IC50 [1]: 83.2 ± 1.65 µM
- IC50 [2]: > 100 µM
- IC50 [3]: > 100 µM
- IC50 [4]: > 100 µM
- IC50 [5]: > 100 µM
- IC50 at 48 h [6, 8]: > 100 µM
- IC50 at 48 h [7, 9]: > 100 µM

SMILES: CC1(C)CCC[C@](C)(C2CC[C@]3(C)C2[C@H](OC(=O)c2ccccc2O)CC2[C@@]4(C)CC[C@H](O)C(C)(C)C4CC[C@]23C)O1 (stereo partly drawn) [Compound 12a, 20(R)-Pananxadiol-3β-hydroxy-12β-yl-2′-hydroxybenzoate]
- IC50 [1]: > 100 µM
- IC50 [2]: > 100 µM
- IC50 [3]: > 100 µM
- IC50 [4]: 60.1 ± 2.45 µM
- IC50 [5]: 50.2 ± 0.94 µM
- IC50 at 48 h [6]: > 100 µM
- IC50 at 48 h [7]: > 100 µM
- melting point: 248 to 250 °C

SMILES: CC1(C)CCC[C@](C)([C@H]2CC[C@]3(C)[C@@H]2[C@H](O)C[C@@H]2[C@@]4(C)CC[C@H](O)C(C)(C)[C@@H]4CC[C@]23C)O1 [PD, panaxadiol, reference compound]
- IC50 [1]: 73.4 ± 1.84 µM
- IC50 [2]: 80.13 ± 0.36 µM
- IC50 [3]: 72.15 ± 0.52 µM
- IC50 [4]: 62 ± 1.63 µM
- IC50 [5]: 43.1 ± 1.05 µM
- IC50 at 48 h [6, 8]: > 100 µM
- IC50 at 48 h [7, 9]: > 100 µM

SMILES: CC(C)(O)CCCC(C)(O)C1CCC2(C)C1C(O)CC1C3(C)CCC(OC(=O)c4ccccc4O)C(C)(C)C3CCC12C [Compound 9a, 20(R)-Dammarane-12β,20,25-triol-3β-yl-2′-hydroxybenzoate]
- IC50 [1]: 11.5 ± 0.23 µM
- IC50 [2]: 26.52 ± 0.26 µM
- IC50 [3]: 37.3 ± 0.39 µM
- IC50 [4]: 50.44 ± 0.11 µM
- IC50 [5]: 35.9 ± 0.41 µM
- IC50 at 48 h [6]: > 100 µM
- IC50 at 48 h [7]: > 100 µM
- melting point: 295 to 297 °C

SMILES: COC(C)(C)CCCC(C)(O)C1CCC2(C)C1C(O)CC1C3(C)CCC(OC(=O)c4ccccc4O)C(C)(C)C3CCC12C [Compound 4a, 20(R)-25-Methoxydammarane-12β,20-diol-3β-yl-2′-hydroxybenzoate]
- IC50 [1]: 50.6 ± 1.03 µM
- IC50 [2]: 13.2 ± 0.18 µM
- IC50 [3]: 19.26 ± 0.14 µM
- IC50 [4]: 11.1 ± 0.35 µM
- IC50 [5]: 35.6 ± 0.56 µM
- IC50 at 48 h [6]: > 100 µM
- IC50 at 48 h [7]: > 100 µM
- melting point: 246 to 248 °C

— publication PMC6278399, “Synthesis and Anticancer Activity Evaluation of Hydrolyzed Derivatives of Panaxnotoginseng Saponins” (Molecules, 2018)
